Values quoted from earlier work, collected in patent US6855351B2, “Pesticide formulation containing azadirachtin (not less than 300 ppm) and salanin in a formulated product with neem oil” (T. Stanes and Company Limited, priority 2002, dated 2005).

Tested on: mammals
Settings: in vivo

Q: For `C/C=C(\C)C(=O)O[C@H]1C[C@@H](OC(C)=O)[C@@]2(C(=O)OC)CO[C@H]3[C@@H](O)[C@@](C)([C@]45O[C@@]4(C)[C@H]4C[C@@H]5O[C@@H]5OC=C[C@@]54O)[C@H]4[C@]1(CO[C@]4(O)C(=O)OC)[C@@H]32` [Azadirachtin], which mammalian toxicity is on record?
A: The mammalian toxicity was “no apparent mammalian toxicity”.
